Where a name gives a salt, the structure may show the parent alone.

By IC50 is commonly meant the concentration needed to halve the response being measured. A low value points to higher potency.

This assay has as its target T1, human CGT (ceramide galactosyltransferase), CHO/CGT lysate (Homo sapiens, UniProt Q16880).
T1 construct: Full-length human CGT cDNA was cloned into the BamH1/Xho1 site of pcDNA3.1 (+); expressed in transfected cells; host or cells: Chinese hamster ovary (CHO) cells; lysate prepared with M-PER
T1 sequence (Q16880 21-541): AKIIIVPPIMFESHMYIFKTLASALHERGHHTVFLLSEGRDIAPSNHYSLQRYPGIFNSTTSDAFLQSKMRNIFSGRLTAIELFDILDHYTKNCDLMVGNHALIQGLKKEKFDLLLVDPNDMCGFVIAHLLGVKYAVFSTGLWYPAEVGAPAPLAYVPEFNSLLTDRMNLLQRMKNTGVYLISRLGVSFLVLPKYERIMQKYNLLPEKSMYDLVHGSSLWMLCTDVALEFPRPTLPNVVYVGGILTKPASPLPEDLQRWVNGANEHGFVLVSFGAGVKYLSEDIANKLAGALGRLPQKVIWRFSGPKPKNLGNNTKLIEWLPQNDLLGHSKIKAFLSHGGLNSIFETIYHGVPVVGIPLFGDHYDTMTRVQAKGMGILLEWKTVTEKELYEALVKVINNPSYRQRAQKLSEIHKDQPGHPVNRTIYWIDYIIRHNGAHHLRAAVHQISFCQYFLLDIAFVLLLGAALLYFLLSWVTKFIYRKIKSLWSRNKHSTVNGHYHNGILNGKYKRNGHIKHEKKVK
Briefly: CGT enzyme assay, LC-MS/MS readout (Table 1 ranges without asterisk). The following applies: LC-MS/MS method (range without asterisk). The format is biochemical. Here is the method:
Full-length human CGT cDNA was cloned into the BamH1/Xho1 site of pcDNA3.1 (+) mammalian expression vector (V90-20, Invitrogen, Carlsbad, Calif.) and the plasmid was transfected into Chinese hamster ovary (CHO) cells. Lysate was prepared using M-PER (Mammalian Protein Extraction Reagent, ThermoFisher Scientific, Grand Island, N.Y.) in the presence of a protease inhibitor cocktail (P8340, Sigma, Saint Louis, Mo.). Each 100 mm dish (100% confluent, approximately 1×10^7 cells) was lysed with 250 μL of M-PER containing protease inhibitors. Protein concentration was determined using a Pierce BCA protein assay kit (ThermoFisher Scientific). Four micrograms of CHO/CGT lysate was incubated with various concentrations of a compound (0.001 μM-50 μM) in 10 mM HEPES (pH 7.2) containing 35 μM dioleoylphosphatidylcholine, 5 mM MgCl2, 5 mM MnCl2, 1% BSA, 15 mM KCl, 1 mM EGTA, 8 mM CHAPS, 10 μM C6-NBD-dihydro-ceramide and 17.5 μM UDP-galactose in a final reaction volume of 20 μL at 37° C. for 1 hour. The final concentration of DMSO was 0.5% in both compound-treated and mock-treated samples. Tween 80 (0.01%) was optionally added to the reaction mixture to help solubilize the compounds. Each individual reaction was diluted with 80 μL of methanol:acetronitrile (1:3) containing 5 μM N-docdecanoyl-NBD-galactosylceramide (internal standard) to stop the reaction. 200 μL H2O:acetonitile (1:1) was added to precipitate the protein. After sufficient mixing, the plates were centrifuged at 2469 g for 38 minutes, 200 μL of supernatant was transferred to a LC/MS 96-deep well plate and a second spin was performed at 2469 g for 10 minutes. The final supernatant was injected in triplicate for RapidFire/MS/MS analysis.
An alternative LC-MS/MS based method was also used. For the LC-MS/MS readout, the CGT assay was identical to the one described above except for the following: […] was used as the CGT enzyme source, C12:0 (2R—OH) ceramide was used as the ceramide substrate and 0.3 μM Cl2 ceramide was used as the internal standard. Tween 80 was not present in the reaction mixture. The final supernatant was injected for LC-MS/MS analysis.
Quantitative analysis using the LC-MS/MS method: The quantitative analysis of C12:0 (2R—OH) ceramide and C12:0 (2R—OH) galactosylceramide by LC-MS/MS was performed on a Shimadzu ultra-fast liquid chromatography (Shimadzu, Japan) coupled with API 4000 mass spectrometer (Applied Biosystems, Concord, Ontario, Canada). Analyst 1.5 software packages (Applied Biosystems) were used to control the LC-MS/MS system, as well as for data acquisition and processing. 10 μL of sample was loaded onto a Luna C18 column (50 mm×2.0 mm, I.D. 3 μm, 100A) (Phenomenex, USA) for chromatographic separation. Mobile phase A consisted of HPLC grade water with 0.1% formic acid (v/v) and mobile phase B consisted of acetonitrile supplemented with 0.1% formic acid (v/v). The separation was achieved using the following gradient program at a flow rate of 0.8 mL/min: the initial mobile phase was 70% B, which was increased in a linear fashion to 95% B in 1.50 min, and then maintained at 95% B until 3.50 min. The mobile phase was then reset to 70% B within 0.01 min, and maintained until 4.50 min. The total run time was 4.50 min. The MS/MS detection was performed in ESI positive mode. The mass transition selected for quantification was m/z 498.5-264.3 for C12:0 (2R—OH) ceramide under the collision energy of 38.8 V, and the mass transition of C12:0 (2R—OH) galactosylceramide was m/z 660.6-264.5 under the collision energy of 51 V. The mass transition of Cl2 ceramide which was used as internal standard was m/z 482.4-264.3 under the collision energy of 33V. Compound IC50 values were calculated using a protocol identical to the one described for the RapidFire method (see Table 1, where data ranges without an asterix correspond to analysis using the LC-MS/MS method).
Using the above CGT enzyme and CGT cellular assays, the compounds of Table 1 were tested. […]
`CC(C)Oc1ccc2cc(S(=O)(=O)N[C@@H](C(=O)N3C4CCC3CC(N)C4)C(F)(F)c3ccc(Br)cc3)ccc2c1` (stereo partly drawn) [Compound 1-2, N-((2S)-3-(3-amino-8-azabicyclo[3.2.1]octan-8-yl)-1-(4-bromophenyl)-1,1-difluoro-3-oxopropan-2-yl)-6-isopropoxynaphthalene-2-sulfonamide] yielded an IC50 of 10 to 30 µM.

Turning to `CCC(CC)COc1ccc(S(=O)(=O)N[C@H](C(=O)N2C3CCC2CC(N)C3)C(F)(F)c2ccc(Br)cc2)cc1` (stereo partly drawn) [Compound 2-1, N-((2R)-3-(3-amino-8-azabicyclo[3.2.1]octan-8-yl)-1-(4-bromophenyl)-1,1-difluoro-3-oxopropan-2-yl)-4-(2-ethylbutoxy)benzenesulfonamide], the 50% inhibitory concentration (IC50) lay within 1 to 10 µM.

Compound `CCC(CC)COc1ccc(S(=O)(=O)N[C@@H](C(=O)N2C3CCC2CC(N)C3)C(F)(F)c2ccc(Br)cc2)cc1` (stereo partly drawn) [Compound 2-2, N-((2S)-3-(3-amino-8-azabicyclo[3.2.1]octan-8-yl)-1-(4-bromophenyl)-1,1-difluoro-3-oxopropan-2-yl)-4-(2-ethylbutoxy)benzenesulfonamide] registered an IC50 of 30 to 100 µM.

The compound `NC1CC2CCC(C1)N2C(=O)C(NS(=O)(=O)c1ccc(-c2ccc(F)cc2)cc1)C(F)(F)c1ccc(Br)cc1` (stereo not shown) [Compound 3, N-(3-(3-amino-8-azabicyclo[3.2.1]octan-8-yl)-1-(4-bromophenyl)-1,1-difluoro-3-oxopropan-2-yl)-4′-fluoro-[1,1′-biphenyl]-4-sulfonamide] came in with a 50% inhibitory concentration (IC50) of 10 to 30 µM.

As for `NC1CC2CCC(C1)N2C(=O)[C@H](NS(=O)(=O)c1ccc(-c2ccc(F)cc2)cc1)C(F)(F)c1ccc(Br)cc1` (stereo partly drawn) [Compound 3-2, N-((2S)-3-(3-amino-8-azabicyclo[3.2.1]octan-8-yl)-1-(4-bromophenyl)-1,1-difluoro-3-oxopropan-2-yl)-4′-fluoro-[1,1′-biphenyl]-4-sulfonamide], the half-maximal inhibitory concentration (IC50) was 30 to 100 µM.

`CC(C)Oc1ccc2cc(CCS(=O)(=O)NC(C(=O)N3C4CCC3CC(N)C4)C(F)(F)c3ccc(Br)cc3)ccc2c1` (stereo not shown) [Compound 4, N-(3-(3-amino-8-azabicyclo[3.2.1]octan-8-yl)-1-(4-bromophenyl)-1,1-difluoro-3-oxopropan-2-yl)-2-(6-isopropoxynaphthalen-2-yl)ethanesulfonamide trifluoroacetate] yielded a concentration for half-maximal inhibition (IC50) of 10 to 30 µM.

In the case of `NC1CC2CCC(C1)N2C(=O)C(NS(=O)(=O)c1ccc2cc(OC3CCCC3)ccc2c1)C(F)(F)c1ccc(Br)cc1` (stereo not shown) [Compound 5, N-(3-(3-amino-8-azabicyclo[3.2.1]octan-8-yl)-1-(4-bromophenyl)-1,1-difluoro-3-oxopropan-2-yl)-6-(cyclopentyloxy)naphthalene-2-sulfonamide trifluoroacetate], the 50% inhibitory concentration (IC50) was 1 to 10 µM.

The compound `NC1CC2CCC(C1)N2C(=O)[C@H](NS(=O)(=O)c1ccc2cc(OC3CCCC3)ccc2c1)C(F)(F)c1ccc(Br)cc1` (stereo partly drawn) [Compound 5-2, N-((2S)-3-(3-amino-8-azabicyclo[3.2.1]octan-8-yl)-1-(4-bromophenyl)-1,1-difluoro-3-oxopropan-2-yl)-6-(cyclopentyloxy)naphthalene-2-sulfonamide trifluoroacetate] yielded an IC50 of 1 to 10 µM.

On to `CCCCOc1ccc2cc(S(=O)(=O)N[C@H](C(=O)N3C4CCC3CC(N)C4)C(F)(F)c3ccc(Br)cc3)ccc2c1` (stereo partly drawn) [Compound 6-1, N-((2R)-3-(3-amino-8-azabicyclo[3.2.1]octan-8-yl)-1-(4-bromophenyl)-1,1-difluoro-3-oxopropan-2-yl)-6-butoxynaphthalene-2-sulfonamide trifluoroacetate], for which the IC50 fell in the range of 1 to 10 µM.

With `CCCCOc1ccc2cc(S(=O)(=O)N[C@@H](C(=O)N3C4CCC3CC(N)C4)C(F)(F)c3ccc(Br)cc3)ccc2c1` (stereo partly drawn) [Compound 6-2, N-((2S)-3-(3-amino-8-azabicyclo[3.2.1]octan-8-yl)-1-(4-bromophenyl)-1,1-difluoro-3-oxopropan-2-yl)-6-butoxynaphthalene-2-sulfonamide trifluoroacetate], the IC50 was in the range of 30 to 100 µM.

As to `CC(C)COc1ccc2cc(S(=O)(=O)N[C@H](C(=O)N3C4CCC3CC(N)C4)C(F)(F)c3ccc(Br)cc3)ccc2c1` (stereo partly drawn) [Compound 7-1, N-((2R)-3-(3-amino-8-azabicyclo[3.2.1]octan-8-yl)-1-(4-bromophenyl)-1,1-difluoro-3-oxopropan-2-yl)-6-isobutoxynaphthalene-2-sulfonamide], the 50% inhibitory concentration (IC50) is 1 to 10 µM.

Compound `CC(C)COc1ccc2cc(S(=O)(=O)N[C@@H](C(=O)N3C4CCC3CC(N)C4)C(F)(F)c3ccc(Br)cc3)ccc2c1` (stereo partly drawn) [Compound 7-2, N-((2S)-3-(3-amino-8-azabicyclo[3.2.1]octan-8-yl)-1-(4-bromophenyl)-1,1-difluoro-3-oxopropan-2-yl)-6-isobutoxynaphthalene-2-sulfonamide] had a concentration for half-maximal inhibition (IC50) of 30 to 100 µM.

As to `CC(C)Oc1ccc2cc(S(=O)(=O)N[C@@H](C(=O)N3C4CCC3CC(N)C4)C(F)(F)c3ccc(Cl)cc3)ccc2c1` (stereo partly drawn) [Compound 8-2, N-((2S)-3-(3-amino-8-azabicyclo[3.2.1]octan-8-yl)-1-(4-chlorophenyl)-1,1-difluoro-3-oxopropan-2-yl)-6-isopropoxynaphthalene-2-sulfonamide trifluoroacetate], the concentration for half-maximal inhibition (IC50) was 10 to 30 µM.

For the compound `CC(C)Oc1ccc2cc(C(=O)C(=O)N[C@H](C(=O)N3C4CCC3CC(N)C4)C(F)(F)c3ccc(Br)cc3)ccc2c1` (stereo partly drawn) [Compound 9-1, N-((2R)-3-(3-amino-8-azabicyclo[3.2.1]octan-8-yl)-1-(4-bromophenyl)-1,1-difluoro-3-oxopropan-2-yl)-2-(6-isopropoxynaphthalen-2-yl)-2-oxoacetamide trifluoroacetate], the IC50 fell in the range of 10 to 30 µM.

Turning to `CC(C)Oc1ccc2cc(C(=O)C(=O)N[C@@H](C(=O)N3C4CCC3CC(N)C4)C(F)(F)c3ccc(Br)cc3)ccc2c1` (stereo partly drawn) [Compound 9-2, N-((2S)-3-(3-amino-8-azabicyclo[3.2.1]octan-8-yl)-1-(4-bromophenyl)-1,1-difluoro-3-oxopropan-2-yl)-2-(6-isopropoxynaphthalen-2-yl)-2-oxoacetamide trifluoroacetate], the half-maximal inhibitory concentration (IC50) is 30 to 100 µM.

The compound `NC1CC2CCC(C1)N2C(=O)[C@@H](NS(=O)(=O)c1ccc2cc(Oc3ccccn3)ccc2c1)C(F)(F)c1ccc(Br)cc1` (stereo partly drawn) [Compound 10-1, N-((2R)-3-(3-amino-8-azabicyclo[3.2.1]octan-8-yl)-1-(4-bromophenyl)-1,1-difluoro-3-oxopropan-2-yl)-6-(pyridin-2-yloxy)naphthalene-2-sulfonamide trifluoroacetate] had an IC50 of 30 to 100 µM.

These data come from patent US20190322676A1, “CERAMIDE GALACTOSYLTRANSFERASE INHIBITORS FOR THE TREATMENT OF DISEASE” (BioMarin Pharmaceutical Inc., priority 2016, published 2019).
